Measurements reported in US20170312221A1, “PHARMACEUTICAL PREPARATION AND METHOD OF ITS PRODUCTION AND USE” (priority 2014, published 2017).

How the values were obtained:
Test in all cases: minimum inhibitory concentration
Format in all cases: cell-based
[1] = tested on: Streptococcus pyogenes 421
[2] = tested on: Staphylococcus aureus ATCC 25923
[3] = tested on: Proteus vulgaris X
[4] = tested on: Escherichia coli NTCT 10418

Compound: C/C(=C\C(=O)OCCCCCCCCC(=O)O)C[C@@H]1OC[C@H](C[C@@H]2O[C@H]2[C@@H](C)[C@H](C)O)[C@@H](O)[C@H]1O [Mupirocin]
- Minimum inhibitory concentration (MIC) Streptococcus pyogenes 421 [1]: 0.12
- Minimum inhibitory concentration (MIC) Staphylococcus aureus ATCC 25923 [2]: 0.25
- Minimum inhibitory concentration (MIC) Proteus vulgaris X [3]: 64
- Minimum inhibitory concentration (MIC) Escherichia coli NTCT 10418 [4]: 128
